Publication PMC9848257, “Design and synthesis of novel rigid dibenzo[b,f]azepines through ring closure technique as promising anticancer candidates against leukaemia and acting as selective topoisomerase II inhibitors and DNA intercalators” (Journal of Enzyme Inhibition and Medicinal Chemistry, 2023)

Assays:
SR = test: NCI-60 one-dose screen, SR; format: cell-based; settings: Homo sapiens, leukaemia, single dose 10 μM, read-out: Growth inhibition %
Description: (§1) Anti-proliferative effects of the counterparts 4a–g and 5a–g were screened against 60 human cancer cell lines, following the Developmental Therapeutics Program protocol, National Cancer Institute[35].
(§2) The anti-tumour activity of the fourteen synthesised congeners was investigated at the NCI against a panel of 60 cancer cell lines (NCI-60 Cell One-Dose Screen). The tested dibenzo[b,f]azepine derivatives were screened at a single dose level (10 μM), Table 1.

SF-295 = test: NCI-60 one-dose screen, SF-295; format: cell-based; settings: Homo sapiens; SF-295, CNS cancer; single dose 10 μM; read-out: Growth inhibition %
Description: as §1, §2

K-562 = test: NCI-60 one-dose screen, K-562; format: cell-based; settings: Homo sapiens, K562; K-562, leukaemia; single dose 10 μM; read-out: Growth inhibition %
Description: as §1, §2

HOP-62 = test: NCI-60 one-dose screen, HOP-62; format: cell-based; settings: Homo sapiens; HOP-62, non-small cell lung cancer; single dose 10 μM; read-out: Growth inhibition %
Description: as §1, §2

MOLT-4 = test: NCI-60 one-dose screen, MOLT-4; format: cell-based; settings: Homo sapiens; MOLT-4, leukaemia; single dose 10 μM; read-out: Growth inhibition %
Description: as §1, §2

HT29 = test: NCI-60 one-dose screen, HT29; format: cell-based; settings: Homo sapiens, HT-29; HT29, colon cancer; single dose 10 μM; read-out: Growth inhibition %
Description: as §1, §2

TK-10 = test: NCI-60 one-dose screen, TK-10; format: cell-based; settings: Homo sapiens; TK-10, renal cancer; single dose 10 μM; read-out: Growth inhibition %
Description: as §1, §2

NCI/ADR-RES = test: NCI-60 one-dose screen, NCI/ADR-RES; format: cell-based; settings: Homo sapiens, ovarian cancer, single dose 10 μM, read-out: Growth inhibition %
Description: as §1, §2

UACC-62 = test: NCI-60 one-dose screen, UACC-62; format: cell-based; settings: Homo sapiens; UACC-62, melanoma; single dose 10 μM; read-out: Growth inhibition %
Description: as §1, §2

HS 578 T = test: NCI-60 one-dose screen, HS 578 T; format: cell-based; settings: Homo sapiens, breast cancer, single dose 10 μM, read-out: Growth inhibition %
Description: as §1, §2

NCI-H322M = test: NCI-60 one-dose screen, NCI-H322M; format: cell-based; settings: Homo sapiens, non-small cell lung cancer, single dose 10 μM, read-out: Growth inhibition %
Description: as §1, §2

UACC-257 = test: NCI-60 one-dose screen, UACC-257; format: cell-based; settings: Homo sapiens; UACC-257, melanoma; single dose 10 μM; read-out: Growth inhibition %
Description: as §1, §2

NCI-H522 = test: NCI-60 one-dose screen, NCI-H522; format: cell-based; settings: Homo sapiens; NCI-H522, non-small cell lung cancer; single dose 10 μM; read-out: Growth inhibition %
Description: as §1, §2

SK-OV-3 = test: NCI-60 one-dose screen, SK-OV-3; format: cell-based; settings: Homo sapiens; SK-OV-3, ovarian cancer; single dose 10 μM; read-out: Growth inhibition %
Description: as §1, §2

U251 = test: NCI-60 one-dose screen, U251; format: cell-based; settings: Homo sapiens, U-251; U251, CNS cancer; single dose 10 μM; read-out: Growth inhibition %
Description: as §1, §2

UO-31 = test: NCI-60 one-dose screen, UO-31; format: cell-based; settings: Homo sapiens; UO-31, renal cancer; single dose 10 μM; read-out: Growth inhibition %
Description: as §1, §2

LOX IMVI = test: NCI-60 one-dose screen, LOX IMVI; format: cell-based; settings: Homo sapiens, melanoma, single dose 10 μM, read-out: Growth inhibition %
Description: as §1, §2

HOP-92 = test: NCI-60 one-dose screen, HOP-92; format: cell-based; settings: Homo sapiens; HOP-92, non-small cell lung cancer; single dose 10 μM; read-out: Growth inhibition %
Description: as §1, §2

SF-268 = test: NCI-60 one-dose screen, SF-268; format: cell-based; settings: Homo sapiens; SF-268, CNS cancer; single dose 10 μM; read-out: Growth inhibition %
Description: as §1, §2

PC-3 = test: NCI-60 one-dose screen, PC-3; format: cell-based; settings: Homo sapiens; PC-3, prostate cancer; single dose 10 μM; read-out: Growth inhibition %
Description: as §1, §2

EKVX = test: NCI-60 one-dose screen, EKVX; format: cell-based; settings: Homo sapiens, non-small cell lung cancer, single dose 10 μM, read-out: Growth inhibition %
Description: as §1, §2

KM12 = test: NCI-60 one-dose screen, KM12; format: cell-based; settings: Homo sapiens; KM12, colon cancer; single dose 10 μM; read-out: Growth inhibition %
Description: as §1, §2

OVCAR-3 = test: NCI-60 one-dose screen, OVCAR-3; format: cell-based; settings: Homo sapiens; OVCAR-3, ovarian cancer; single dose 10 μM; read-out: Growth inhibition %
Description: as §1, §2

786-0 = test: NCI-60 one-dose screen, 786-0; format: cell-based; settings: Homo sapiens; 786-0, renal cancer; single dose 10 μM; read-out: Growth inhibition %
Description: as §1, §2

MALME-3M = test: NCI-60 one-dose screen, MALME-3M; format: cell-based; settings: Homo sapiens, melanoma, single dose 10 μM, read-out: Growth inhibition %
Description: as §1, §2

DU-145 = test: NCI-60 one-dose screen, DU-145; format: cell-based; settings: Homo sapiens; DU-145, prostate cancer; single dose 10 μM; read-out: Growth inhibition %
Description: as §1, §2

RPMI-8226 = test: NCI-60 one-dose screen, RPMI-8226; format: cell-based; settings: Homo sapiens; RPMI-8226, leukaemia; single dose 10 μM; read-out: Growth inhibition %
Description: as §1, §2

CCRF-CEM = test: NCI-60 one-dose screen, CCRF-CEM; format: cell-based; settings: Homo sapiens, leukaemia, single dose 10 μM, read-out: Growth inhibition %
Description: as §1, §2

ACHN = test: NCI-60 one-dose screen, ACHN; format: cell-based; settings: Homo sapiens, renal cancer, single dose 10 μM, read-out: Growth inhibition %
Description: as §1, §2

MDA-MB-468 = test: NCI-60 one-dose screen, MDA-MB-468; format: cell-based; settings: Homo sapiens; MDA-MB-468, breast cancer; single dose 10 μM; read-out: Growth inhibition %
Description: as §1, §2

MCF-7 = test: NCI-60 one-dose screen, MCF-7; format: cell-based; settings: Homo sapiens, MCF7; MCF-7, breast cancer; single dose 10 μM; read-out: Growth inhibition %
Description: as §1, §2

HCT-15 = test: NCI-60 one-dose screen, HCT-15; format: cell-based; settings: Homo sapiens; HCT-15, colon cancer; single dose 10 μM; read-out: Growth inhibition %
Description: as §1, §2

SK-MEL-5 = test: NCI-60 one-dose screen, SK-MEL-5; format: cell-based; settings: Homo sapiens; SK-MEL-5, melanoma; single dose 10 μM; read-out: Growth inhibition %
Description: as §1, §2

SW-620 = test: NCI-60 one-dose screen, SW-620; format: cell-based; settings: Homo sapiens; SW-620, colon cancer; single dose 10 μM; read-out: Growth inhibition %
Description: as §1, §2

O=C(NNC(=O)N1c2ccccc2C=Cc2ccccc21)c1ccc(Cl)cc1 [Compound 4c, N′-(4-Chlorobenzoyl)-5H-dibenzo[b,f]azepine-5-carbohydrazide]
< 10%: inhibition at 10 µM (SR) | inhibition at 10 µM (SF-295) | inhibition at 10 µM (K-562) | inhibition at 10 µM (HOP-62) | inhibition at 10 µM (MOLT-4) | inhibition at 10 µM (HT29) | inhibition at 10 µM (NCI/ADR-RES) | inhibition at 10 µM (UACC-62) | inhibition at 10 µM (HS 578 T) | inhibition at 10 µM (NCI-H322M) | inhibition at 10 µM (NCI-H522) | inhibition at 10 µM (SK-OV-3) | inhibition at 10 µM (U251) | inhibition at 10 µM (UO-31) | inhibition at 10 µM (LOX IMVI) | inhibition at 10 µM (HOP-92) | inhibition at 10 µM (SF-268) | inhibition at 10 µM (PC-3) | inhibition at 10 µM (EKVX) | inhibition at 10 µM (KM12) | inhibition at 10 µM (OVCAR-3) | inhibition at 10 µM (786-0) | inhibition at 10 µM (MALME-3M) | inhibition at 10 µM (DU-145) | inhibition at 10 µM (RPMI-8226) | inhibition at 10 µM (CCRF-CEM) | inhibition at 10 µM (MDA-MB-468) | inhibition at 10 µM (MCF-7) | inhibition at 10 µM (HCT-15) | inhibition at 10 µM (SK-MEL-5) | inhibition at 10 µM (SW-620)
229 to 231 °C: melting point
12.6%: inhibition at 10 µM (UACC-257)
13.2%: inhibition at 10 µM (TK-10)
13.3%: inhibition at 10 µM (ACHN)

Cc1ccc(C(=O)NNC(=O)N2c3ccccc3C=Cc3ccccc32)cc1 [Compound 4d, N′-(4-Methylbenzoyl)-5H-dibenzo[b,f]azepine-5-carbohydrazide]
151 to 153 °C: melting point
< 10%: inhibition at 10 µM (SR) | inhibition at 10 µM (SF-295) | inhibition at 10 µM (K-562) | inhibition at 10 µM (HOP-62) | inhibition at 10 µM (MOLT-4) | inhibition at 10 µM (HT29) | inhibition at 10 µM (NCI/ADR-RES) | inhibition at 10 µM (UACC-62) | inhibition at 10 µM (HS 578 T) | inhibition at 10 µM (NCI-H322M) | inhibition at 10 µM (UACC-257) | inhibition at 10 µM (NCI-H522) | inhibition at 10 µM (SK-OV-3) | inhibition at 10 µM (U251) | inhibition at 10 µM (UO-31) | inhibition at 10 µM (LOX IMVI) | inhibition at 10 µM (HOP-92) | inhibition at 10 µM (SF-268) | inhibition at 10 µM (PC-3) | inhibition at 10 µM (EKVX) | inhibition at 10 µM (KM12) | inhibition at 10 µM (OVCAR-3) | inhibition at 10 µM (786-0) | inhibition at 10 µM (MALME-3M) | inhibition at 10 µM (DU-145) | inhibition at 10 µM (RPMI-8226) | inhibition at 10 µM (CCRF-CEM) | inhibition at 10 µM (ACHN) | inhibition at 10 µM (MDA-MB-468) | inhibition at 10 µM (MCF-7) | inhibition at 10 µM (HCT-15) | inhibition at 10 µM (SK-MEL-5) | inhibition at 10 µM (SW-620)
10.3%: inhibition at 10 µM (TK-10)
